System: 57BL/6 mice
Experiment: Antibody titers (IgG1, IgG2) in mice given Mtb72F vaccine plus MPL adjuvant
Conditions: for antibody titer of IgG1 / antibody titer of IgG2: Mtb72F 10 μg injected, compared with no MPL administered
[1] = day 43, MPL administered iontophoretically (transcutaneous)
[2] = day 43, MPL by intracutaneous injection (MPL-AF or MPL-SE, 20 μg)

Substance: monophosphoryl lipid A [MPL]
- immune response-enhancing effects (MPL administered iontophoretically, compared with intracutaneous injection): significant immune response-enhancing effects equivalent to those obtained by intracutaneous injection
- antibody titer results, iontophoretic delivery compared with intracutaneous injection (day 43, IgG1 and IgG2): nearly identical
- antibody titer of IgG1 [1]: significantly higher
- antibody titer of IgG2 [1]: significantly higher
- antibody titer of IgG1 [2]: significantly higher
- antibody titer of IgG2 [2]: significantly higher
